Experimental data: patent US11246922B1, “Vaccine RNA-peptide against SARS-CoV-2 with endogenous exosomes as carrier” (Elidan America, LLC., priority 2021, dated 2022)
In brackets after ≈: the same amount, converted by molar mass. Ends that are not written are not given here.

Assays:
in vitro [1] = conditions: human, HEK293 cells
in vitro [2] = conditions: human, WM-266 cells

Compound	LC100 (BEAS-2B cell line)	LC100 (HUVEC cell line)	LC100 (HMEC-1 cell line)	LC100 (HEK293 cell line)	LC100 (WM-266 cell line)	CC50 (in vitro [1])	CC50 (in vitro [2])	CC50 (BEAS-2B cell line)	CC50 (HUVEC cell line)	CC50 (HMEC-1 cell line)	CC50 (HEK293 cell line)	CC50 (WM-266 cell line)
CVNDTFAGSTFISDEVDGVDEVAKKKSK [Peptide-AB]	444	456	450	7	444 µg/µL	6 µg/mL	36 µg/mL					
GVDEVAKKKSK [Peptide-B]					445 µg/µL							
CVNDTFAGSTFISDEVD [Peptide-A]	447	445	452	450	445 µg/µL							
Phosphate-buffered saline [PBS]	616	612	580	539	587 µg/µL							
CCCCCCCCCCCCCC(=O)O[C@@H]1[C@@H](C)[C@@]2(O)[C@@H](C=C(CO)C[C@]3(O)C(=O)C(C)=C[C@@H]23)[C@@H]2C(C)(C)[C@]12OC(C)=O [PMA, Phorbol 12-myristate 13-acetate, reference compound]								297 µg/mL (≈ 481 µM)	272 µg/mL (≈ 441 µM)	291 µg/mL (≈ 472 µM)	275 µg/mL (≈ 446 µM)	310 µg/mL (≈ 503 µM)
